From the NIST ThermoML archive (doi:10.1021/je049701s)

Settings: Liquid; for mass density: 293.1 K, 101.33 kPa; for vapor or sublimation pressure: Ebulliometric method (Recirculating still)

CCc1ccccc1 [ethylbenzene]
Settings	mass density [kg/m3]	vapor or sublimation pressure [kPa]
–	867.1	–
385.7 K	–	50
387.75 K	–	53.37
391.51 K	–	60
394.15 K	–	65
397.49 K	–	71.87
398.93 K	–	75
401.16 K	–	80
403.27 K	–	85
405.26 K	–	90
407.14 K	–	95
412.49 K	–	110.02
417 K	–	124.3

Cc1cccc(C)c1 [1,3-dimethylbenzene]
Settings	mass density [kg/m3]	vapor or sublimation pressure [kPa]
–	864.2	–
362.45 K	–	21.82
366.31 K	–	25
371.49 K	–	29.94
376.31 K	–	35
380.81 K	–	40.36
384.3 K	–	45
387.84 K	–	50
389.84 K	–	53.54
393.34 K	–	60
397.71 K	–	67.97
400.96 K	–	75
403.25 K	–	80
406.5 K	–	87.74
407.5 K	–	90
409.4 K	–	95
415.54 K	–	111.8
423.34 K	–	137.3

Cc1ccccc1C [1,2-dimethylbenzene]
Settings	Normal boiling temperature [°C]	mass density [kg/m3]	vapor or sublimation pressure [kPa]
396.73 K	–	–	55
399.52 K	–	–	60
400.66 K	–	–	62.13
404.71 K	–	–	70
407.05 K	–	–	75
409.44 K	–	–	80.33
411.44 K	–	–	85
413.5 K	–	–	90
415.44 K	–	–	95
418.23 K	–	–	102.5
427 K	–	–	129.3
Vibrating tube method	–	879.8	–
ebulliometry	144.40	–	–

Cc1ccc(C)cc1 [1,4-dimethylbenzene]
Settings	mass density [kg/m3]	vapor or sublimation pressure [kPa]
–	861.2	–
389.8 K	–	53.26
390.85 K	–	55
393.61 K	–	60
398.72 K	–	70
401.06 K	–	75
403.29 K	–	80
405.37 K	–	84.84
409.38 K	–	95
420.93 K	–	129.7
